Results on ten compounds are retold here after patent US20230159510A1, “NOVEL PRMT5 INHIBITORS” (AMGEN INC., priority 2020, published 2023).

The test system of assay [1] is HCT116 MTAP null cells. The assay can be described thus: HCT116 proliferation assay, MTAP null cells (CellTiter-Glo, 6 days). It counts as cell-based. Conditions: read-out: Protif_ HCT116-MTAP null IC50. Summed up: (§1)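 Both lines grow in RPMI 1640 containing 10% fetal bovine serum. After an overnight rest, they receive compound at up to 1 or 10 µM in threefold serial dilutions, with vehicle wells holding DMSO only.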
On the technique in general: In ATP-based viability assays light output follows the ATP content of the culture.

For assay [2], the system named is HCT116 WT cells. The assay is described as follows: HCT116 proliferation assay, WT cells (CellTiter-Glo, 6 days). It counts as cell-based. As to conditions: read-out: Prolif_HCT116-WT IC50. The method, boiled down: as §1
Assay [3] has as its target PRMT5/MEP50 (Homo sapiens, UniProt O14744). The assay can be described thus: MTase-Glo methyl transferase assay, Method B (FL-Histone H2A, 1 µM MTA, 1 h pre-incubation). Conditions: read-out: PRMT5 MTase Glo Ki (nM, Meth. B). On the set-up: purchased Reaction Biology Corp RD-11-292. It counts as biochemical. Summed up: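 PRMT5/MEP50 (4 nM) was pre-incubated 1 h with compound, 5 µM SAM and 1 µM MTA, then started with 2.5 µM FL-Histone H2A in Tris pH 8.0 buffer. After 20 h at room temperature, SAH was detected by MTase-Glo luminescence, and IC50/KI were fitted from dose-response curves.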

Like-named read-outs stand apart in the source and are kept apart here.

Sequence of PRMT5/MEP50 (O14744 2-637 limits assumed): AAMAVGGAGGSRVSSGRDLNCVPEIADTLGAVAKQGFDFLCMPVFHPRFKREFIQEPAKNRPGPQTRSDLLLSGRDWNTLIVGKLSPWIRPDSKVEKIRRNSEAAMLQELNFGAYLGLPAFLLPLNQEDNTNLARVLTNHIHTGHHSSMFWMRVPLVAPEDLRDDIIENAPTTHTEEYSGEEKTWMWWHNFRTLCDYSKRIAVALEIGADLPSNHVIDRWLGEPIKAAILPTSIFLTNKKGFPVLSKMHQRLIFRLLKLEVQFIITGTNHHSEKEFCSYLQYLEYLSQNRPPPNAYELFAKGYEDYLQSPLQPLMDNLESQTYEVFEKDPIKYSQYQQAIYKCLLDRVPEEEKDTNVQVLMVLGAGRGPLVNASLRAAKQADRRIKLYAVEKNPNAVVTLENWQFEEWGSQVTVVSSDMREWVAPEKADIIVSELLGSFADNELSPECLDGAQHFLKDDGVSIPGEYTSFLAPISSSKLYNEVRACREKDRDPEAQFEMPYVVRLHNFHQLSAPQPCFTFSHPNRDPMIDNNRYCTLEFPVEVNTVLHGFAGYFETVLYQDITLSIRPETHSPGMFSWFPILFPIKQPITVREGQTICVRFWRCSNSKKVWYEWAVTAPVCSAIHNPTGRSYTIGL
Sequence of PRMT5/MEP50 (Q9BQA1 2-342 partner limits assumed): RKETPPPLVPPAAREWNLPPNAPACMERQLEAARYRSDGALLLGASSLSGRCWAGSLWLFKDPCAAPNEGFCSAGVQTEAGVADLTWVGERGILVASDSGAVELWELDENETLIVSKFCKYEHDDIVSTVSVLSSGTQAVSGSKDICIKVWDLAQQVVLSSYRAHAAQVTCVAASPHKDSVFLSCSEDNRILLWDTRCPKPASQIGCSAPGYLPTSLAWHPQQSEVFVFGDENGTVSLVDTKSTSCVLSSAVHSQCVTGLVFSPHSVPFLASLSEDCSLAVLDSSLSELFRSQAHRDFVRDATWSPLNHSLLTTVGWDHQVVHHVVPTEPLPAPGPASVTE

The IC50 is the midpoint of a concentration-inhibition curve. As a reminder, the Ki is a measure of affinity in units of concentration, obtained from inhibition or displacement. For the compound `Cc1cc2cc(C(=O)N(Cc3cncc(F)c3)Cc3ccccc3F)ccc2nc1N` [Example 590, 2-amino-N-(2-fluorobenzyl)-N-((5-fluoropyridin-3-yl)methyl)-3-methylquinoline-6-carboxamide], the IC50 is 921 nM in assay [1] (HCT116-MTAP null, 144 h) and 6800 nM in assay [2] (Homo sapiens, HCT-116, 144 h). Also, the Ki in assay [3] was 14.9 nM.

For the compound `Cc1ccc2c(c1)C(N(Cc1ccc(C(F)(F)F)cn1)C(=O)c1ccc3nc(N)c(C)cc3c1)CC2` (stereo not drawn) [Example 624, 2-amino-3-methyl-N-(6-methyl-2,3-dihydro-1H-inden-1-yl)-N-((5-(trifluoromethyl)pyridin-2-yl)methyl)quinoline-6-carboxamide], the IC50 in assay [1] (HCT116-MTAP null, 144 h) was 187 nM; in assay [2] (Homo sapiens, HCT-116, 144 h), over 1000 nM. The Ki in assay [3] is 5.19 nM.

As for `Cc1cc2cc(C(=O)N(Cc3ccc(C(F)(F)F)cn3)CC3(C#N)CC3)ccc2nc1N` [Example 577, 2-amino-N-((1-cyanocyclopropyl)methyl)-3-methyl-N-((5-(trifluoromethyl)pyridin-2-yl)methyl)quinoline-6-carboxamide], the IC50 amounted to 159 nM in assay [1] (HCT116-MTAP null, 144 h) and 6650 nM in assay [2] (Homo sapiens, HCT-116, 144 h). Further, the Ki in assay [3] came out at 3.89 nM.

In the case of `Cc1cc2cc(C(=O)N(Cc3ccc(C(F)(F)F)cn3)C3CCCc4[nH]ccc43)ccc2nc1N` (stereo not drawn) [Example 603, 2-amino-3-methyl-N-(4,5,6,7-tetrahydro-1H-indol-4-yl)-N-((5-(trifluoromethyl)pyridin-2-yl)methyl)quinoline-6-carboxamide], the IC50 in assay [1] (HCT116-MTAP null, 144 h) was 317 nM; in assay [2] (Homo sapiens, HCT-116, 144 h), over 1500 nM. Further, the Ki in assay [3] is 23.7 nM.

`Cc1cc2cc(C(=O)N(Cc3ccc(C(F)(F)F)cn3)C3CCCC3C#N)c(F)cc2nc1N` (stereo not drawn) [Example 702, 2-amino-N-(2-cyanocyclopentyl)-7-fluoro-3-methyl-N-[[5-(trifluoromethyl)-2-pyridyl]methyl] quinoline-6-carboxamide]: the IC50 in assay [1] (HCT116-MTAP null, 144 h) was 46 nM; in assay [2] (Homo sapiens, HCT-116, 144 h), 560 nM. The Ki in assay [3] turned out to be 5.12 nM.

Turning to `Cc1cc2cc(C(=O)N(Cc3ccc4[nH]ncc4c3)Cc3ccc(C(F)(F)F)cn3)ccc2nc1N` [Example 618, N-((1H-indazol-5-yl)methyl)-2-amino-3-methyl-N-((5-(trifluoromethyl)pyridin-2-yl)methyl)quinoline-6-carboxamide], the IC50 in assay [1] came to 55 nM; in assay [2], 1400 nM. Moreover, in assay [3], the Ki is 1.59 nM.

For `Cc1cc2cc(C(=O)N(Cc3ccc(C(F)(F)F)cn3)C3CCc4sc(Cl)cc43)ccc2nc1N` (stereo not drawn) [Example 607, 2-amino-N-(2-chloro-5,6-dihydro-4H-cyclopenta[b]thiophen-4-yl)-3-methyl-N-((5-(trifluoromethyl)pyridin-2-yl)methyl)quinoline-6-carboxamide], the half-inhibitory concentration (IC50) in assay [1] (HCT116-MTAP null, 144 h) was 370 nM; in assay [2] (Homo sapiens, HCT-116, 144 h) it was over 3200 nM. For the same compound, the Ki in assay [3] was found to be 7.26 nM.

`Cc1cc2cc(C(=O)N(Cc3ccn4ccnc4c3)Cc3ccc(C(F)(F)F)cn3)ccc2nc1N` [Example 621, 2-amino-N-(imidazo[1,2-a]pyridin-7-ylmethyl)-3-methyl-N-((5-(trifluoromethyl)pyridin-2-yl)methyl)quinoline-6-carboxamide]: the IC50 in assay [1] (HCT116-MTAP null, 144 h) is 133 nM; in assay [2] (Homo sapiens, HCT-116, 144 h), over 1000 nM. Further, the Ki in assay [3] turned out to be 3.97 nM.

Regarding `Cc1cc2cc(C(=O)N(Cc3ccc(C(F)(F)F)cn3)CC3CCOCC3)ccc2nc1N` [Example 683, 2-amino-3-methyl-N-(tetrahydropyran-4-ylmethyl)-N-[[5-(trifluoromethyl)-2-pyridyl]methyl] quinoline-6-carboxamide], the IC50 in assay [1] (HCT116-MTAP null, 144 h) is 297 nM; in assay [2] (Homo sapiens, HCT-116, 144 h), over 1000 nM. Also, the Ki in assay [3] is 4.29 nM.

“2-amino-3-methyl-N-[(4-methylthiazol-5-yl)methyl] -N-[[5-(trifluoromethyl)-2-pyridyl]methyl] quinoline-6-carboxamide [Example 565]”: the results for the IC50 in assay [1] and in assay [2] were 94 nM and 3490 nM, respectively. The Ki in assay [3] is 2.77 nM.
